Source: patent US20100247427A1, “Methods of inhibiting cell growth and methods of enhancing radiation responses” (University of South Florida, priority 2005, published 2010)

Columns and labels:
[1] = biological target: Stat3 (Homo sapiens, UniProt P40763); settings: other reports; cited from earlier work
[2] = tested on: DU145 cells; test: TUNEL assay for apoptosis; type: cell-based, Human; settings: Cisplatin plus radiation; FIG. 5
Protocol: TUNEL assay. Cells were labeled for apoptotic DNA strand breaks by terminal deoxyribonucleotidyl transferase-mediated dUTP nick end labeling (TUNEL) reaction using a flow cytometry assay (Roche Applied Science, Indianapolis, Ind.) according to the instructions of the supplier. DU145 cells were treated with CPA-7 for 4 hours, then irradiated, and subjected to the TUNEL assay 24 to 48 hours later. To determine cellular viability, cells were harvested by trypsinization and counted by trypan blue exclusion assay at 24 and 48 hours after irradiation. All experiments were done in triplicate.
The enhancement of radiation responsiveness was also evident when apoptosis was measured using a TUNEL assay (FIGS. 4 and 5). DU145 cells were pre-treated for 4 hours with CPA-7 or vehicle alone prior to radiation. A TUNEL assay was performed 24 hours post-radiation and the results are depicted in FIG. 4. At 24 hours, only 2% of untreated cells had undergone spontaneous apoptosis. […] In contrast, 15.7% of cells treated with both radiation and CPA-7 had undergone apoptosis at 24 hours, indicative of a synergistic effect. FIG. 5 depicts the results of a similar assay in which cells were pre-treated with CPA-7 for 24 hours prior to irradiation. […] Additionally, not all platinum complexes have this effect.

Stat3, sequence (P40763 whole entry, species assumed): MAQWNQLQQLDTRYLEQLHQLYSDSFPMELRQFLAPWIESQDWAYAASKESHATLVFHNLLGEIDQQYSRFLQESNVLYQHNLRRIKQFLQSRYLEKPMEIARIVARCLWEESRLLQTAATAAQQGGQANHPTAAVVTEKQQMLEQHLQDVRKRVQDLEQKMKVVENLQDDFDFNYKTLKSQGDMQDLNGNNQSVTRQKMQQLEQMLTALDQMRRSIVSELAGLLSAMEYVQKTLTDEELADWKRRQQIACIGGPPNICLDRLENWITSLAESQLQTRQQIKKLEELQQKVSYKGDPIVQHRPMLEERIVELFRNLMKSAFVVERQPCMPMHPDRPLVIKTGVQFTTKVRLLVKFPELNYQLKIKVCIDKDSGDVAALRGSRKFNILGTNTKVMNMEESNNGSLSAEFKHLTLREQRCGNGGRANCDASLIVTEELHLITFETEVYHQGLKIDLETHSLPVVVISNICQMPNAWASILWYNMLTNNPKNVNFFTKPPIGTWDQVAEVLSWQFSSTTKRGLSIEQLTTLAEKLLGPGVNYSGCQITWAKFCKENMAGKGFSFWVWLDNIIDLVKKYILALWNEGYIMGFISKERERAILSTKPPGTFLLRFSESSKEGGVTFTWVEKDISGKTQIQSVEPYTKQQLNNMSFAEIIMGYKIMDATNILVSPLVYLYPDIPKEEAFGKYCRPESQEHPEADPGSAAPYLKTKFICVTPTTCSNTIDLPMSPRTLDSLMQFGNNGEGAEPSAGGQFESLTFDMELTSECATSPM

N.N.[Cl][Pt][Cl] [Cisplatin]
modulation of Stat3 activation [1]: does not modulate Stat3 activation | apoptosis rate in combination with radiation (TUNEL) [2]: not significantly enhanced
